Results reported in PubChem BioAssay (NCI).
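Cells were grown in 96-well plates and exposed to each compound for 48 hours at five concentrations; endpoints were interpolated linearly between bracketing concentrations, or set to the highest concentration if not reached. At the TGI there is no net growth.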

Columns and labels:
Test in all cases: DTP human tumour cell line panel, 48 h
ACHN renal = test system: ACHN renal
DU-145 prostate = test system: DU-145 prostate
HS 578T breast = test system: HS 578T breast
NCI-H460 lung = test system: NCI-H460 lung
T-47D breast = test system: T-47D breast
IGROV1 ovarian = test system: IGROV1 ovarian
HOP-62 NSCLC = test system: HOP-62 NSCLC
SR leukemia = test system: SR leukemia
OVCAR-8 ovarian = test system: OVCAR-8 ovarian
SK-MEL-28 melanoma = test system: SK-MEL-28 melanoma
MDA-MB-435 = test system: MDA-MB-435
KM12 colon = test system: KM12 colon
SK-MEL-5 melanoma = test system: SK-MEL-5 melanoma
RXF 393 renal = test system: RXF 393 renal
EKVX NSCLC = test system: EKVX NSCLC
BT-549 breast = test system: BT-549 breast
HT29 colon = test system: HT29 colon
SK-MEL-2 melanoma = test system: SK-MEL-2 melanoma
A549 NSCLC = test system: A549 NSCLC
HOP-92 NSCLC = test system: HOP-92 NSCLC
SN12C renal = test system: SN12C renal
HCT-116 colon = test system: HCT-116 colon
MCF7 breast = test system: MCF7 breast
PC-3 prostate = test system: PC-3 prostate
MALME-3M melanoma = test system: MALME-3M melanoma
SF-539 CNS = test system: SF-539 CNS
MDA-MB-231 breast = test system: MDA-MB-231 breast
786-0 renal = test system: 786-0 renal
SNB-75 CNS = test system: SNB-75 CNS
SF-295 CNS = test system: SF-295 CNS
U251 CNS = test system: U251 CNS
HL-60(TB) leukemia = test system: HL-60(TB) leukemia
COLO 205 colon = test system: COLO 205 colon
OVCAR-5 ovarian = test system: OVCAR-5 ovarian
NCI/ADR-RES ovarian = test system: NCI/ADR-RES ovarian
SK-OV-3 ovarian = test system: SK-OV-3 ovarian
UACC-62 melanoma = test system: UACC-62 melanoma
CCRF-CEM leukemia = test system: CCRF-CEM leukemia
A498 renal = test system: A498 renal
SNB-19 CNS = test system: SNB-19 CNS
HCC-2998 colon = test system: HCC-2998 colon
UACC-257 melanoma = test system: UACC-257 melanoma
NCI-H226 lung = test system: NCI-H226 lung
OVCAR-3 ovarian = test system: OVCAR-3 ovarian
TK-10 renal = test system: TK-10 renal
K-562 leukemia = test system: K-562 leukemia
OVCAR-4 ovarian = test system: OVCAR-4 ovarian
MDA-N = test system: MDA-N
NCI-H23 lung = test system: NCI-H23 lung
M14 melanoma = test system: M14 melanoma
SF-268 CNS = test system: SF-268 CNS
NCI-H522 lung = test system: NCI-H522 lung
UO-31 renal = test system: UO-31 renal
HCT-15 colon = test system: HCT-15 colon
CAKI-1 renal = test system: CAKI-1 renal
MOLT-4 leukemia = test system: MOLT-4 leukemia
RPMI-8226 leukemia = test system: RPMI-8226 leukemia
SW-620 colon = test system: SW-620 colon
LOX IMVI melanoma = test system: LOX IMVI melanoma

Measured: TGI

COc1cc(C)cc2c(-c3c(O)cc(O)c4c3C[C@H](C)N[C@H]4C)cc(-c3cc(-c4c(O)cc(O)c5c4C[C@H](C)N[C@H]5C)c4cc(C)cc(OC)c4c3O)c(O)c12
not listed: LOX IMVI melanoma
> 100 µM: all other assays above

CCN1CCCn2c(=O)[nH]c3cc(Br)cc1c32
54.6 µM: RXF 393 renal
43.2 µM: SNB-75 CNS
97.2 µM: HS 578T breast
not listed: HOP-92 NSCLC | NCI-H522 lung
> 100 µM: all other assays above

O=C1c2ccccc2C(=O)c2nn(N=P(CP(=Nn3nc4c(n3)C(=O)c3ccccc3C4=O)(c3ccccc3)c3ccccc3)(c3ccccc3)c3ccccc3)nc21
not listed: SNB-75 CNS | NCI-H226 lung | UO-31 renal
> 100 µM: all other assays above

COc1cc2c(cc1OC)C(=O)/C(=C/c1ccc(O)cc1)CC2
4.32 µM: UO-31 renal
not listed: SNB-75 CNS | A498 renal | NCI-H522 lung
> 10 µM: all other assays above

COc1ccccc1NC(=S)N/N=C/c1ccccn1
1.95 µM: T-47D breast
0.639 µM: HCT-116 colon
> 35.9 µM: NCI-H226 lung
> 31.6 µM: KM12 colon | HT29 colon | SF-295 CNS | K-562 leukemia
> 16 µM: COLO 205 colon
0.693 µM: HL-60(TB) leukemia
10.9 µM: NCI-H522 lung
25.6 µM: HOP-62 NSCLC
2.71 µM: SK-MEL-5 melanoma
> 22.6 µM: RPMI-8226 leukemia
29.5 µM: SK-MEL-2 melanoma
7.69 µM: M14 melanoma
77 µM: BT-549 breast
3.75 µM: UACC-62 melanoma
0.416 µM: UACC-257 melanoma
34.7 µM: A549 NSCLC
0.237 µM: NCI/ADR-RES ovarian
> 23.1 µM: CCRF-CEM leukemia
5.08 µM: EKVX NSCLC
> 100 µM: MCF7 breast | OVCAR-4 ovarian
16.8 µM: CAKI-1 renal
13 µM: 786-0 renal
5.07 µM: SF-539 CNS
5.04 µM: A498 renal
29 µM: HOP-92 NSCLC | HCT-15 colon
> 60.1 µM: MDA-MB-231 breast
24.4 µM: SNB-75 CNS | UO-31 renal
94.1 µM: RXF 393 renal
34.8 µM: SK-OV-3 ovarian
6.8 µM: LOX IMVI melanoma
12.5 µM: U251 CNS
6.01 µM: NCI-H23 lung
6.12 µM: NCI-H460 lung
8.9 µM: ACHN renal
3.59 µM: SF-268 CNS
32.9 µM: HCC-2998 colon
12.9 µM: OVCAR-8 ovarian
19 µM: DU-145 prostate
5.15 µM: SN12C renal
> 24.3 µM: MALME-3M melanoma
not listed: IGROV1 ovarian | SR leukemia | OVCAR-3 ovarian | MOLT-4 leukemia
> 46.4 µM: all other assays above

Nc1ccc2c(c1)NC(=O)[C@@H]1CCCN1C2=O
not listed: MALME-3M melanoma
> 100 µM: all other assays above

C=CCOC1(CC=C)C(=O)OC2C(O)COC21O (stereo unspecified)
not listed: HOP-92 NSCLC | SNB-75 CNS | RPMI-8226 leukemia
> 100 µM: all other assays above
